Experimental data taken from patent publication US20110251128A1, “THYMOSIN Beta4 PEPTIDES PROMOTE TISSUE REGENERATION” (The Board of Regents of the University of Texas System, priority 2010, published 2011).
Entries after “also recorded” stand apart in the source; their conditions may differ. Read-outs that look alike come from different tables or passages of the source. Residues, ends and D or L forms follow the SMILES beside them. No end group written: not given here.

Experiments:
[1] = test system: C57BL/6J male mice after coronary ligation; test: Myocardial infarction by LAD coronary ligation in adult mice: echocardiography, scar volume, myocyte size; type: in vivo, mouse; settings: for side effects: mouse model; for post-ischemic cardiac function, in words: adult mice after coronary ligation
Description: (§1) Animals and Surgical procedures. Mice: Myocardial infarctions were produced in seventy C57BL/6J male mice at 16 weeks of age (25-30 g) by ligation of the left anterior descending (LAD) coronary artery as described (Garner et al., 2003). All animal protocols were reviewed and approved by the University of Texas Southwestern Medical School Institutional Animal Care Advisory Committee and were in compliance with the rules governing animal use as published by the NIH. Mice were sedated in an isoflurane chamber (5%) for 60 seconds until self-designed coaxial mask could be safely applied. The mask supplied continuous isoflurane (2.0%) and oxygen (98.0%) under positive pressure from a Harvard small animal respirator throughout the procedures. Immediately after ligation mice were injected with 200 ng of peptide in […] or […] PBS in collagen intracardially in the infarction border, and with […] PBS intraperitoneally as described (Bock-Marquette et al., 2004). Intraperitoneal injections were repeated every three days after ligation. Effective doses of the peptides were calculated based on optimal in vitro cell migration effect and on biodistribution calculations of full length TB4 (Mora et al., 1997). The inventors administered buprenorphine (0.05 mg/kg) for post-operative pain control. Hearts were removed 1, 14 and 21 days after ligation and processed for further investigations.
Analysis of cardiac function by echocardiography: Echocardiograms to assess systolic function were performed using M-mode and 2-dimensional measurements as described previously (Garner et al., 2003). The measurements represented the average of six selected cardiac cycles from at least two separate scans performed in random-blind fashion with papillary muscles used as a point of reference for consistency in level of scan. End diastole was defined as the maximal left ventricle (LV) diastolic dimension and end systole was defined as the peak of posterior wall motion. Single outliers in each group were omitted for statistical analysis. Fractional shortening (FS), a surrogate of systolic function, was calculated from LV dimensions as follows: FS=[(EDD−ESD)/EDD]×100%. Ejection fraction (EF) was calculated as follows: EF=[(edd^3−esd^3)/edd^3]×100%. EDD, end diastolic dimension; ESD, end systolic dimension.
Calculation of scar volume and myocyte size: Scar volume was calculated after Masson's trichrome staining in six sections through the heart of each mouse using Openlab 3.03 software (Improvision) similar to previously described (Bock-Marquette et al., 2004). Percent area of collagen deposition was measured on each section in blinded fashion and averaged for each mouse.

adult infarcted pigs = test: Ischemia reperfusion (acute myocardial infarction) in pigs with retroinfusion of peptides; type: in vivo, pig; settings: pig model
Procedure: Pigs: German pigs were purchased from the animal research department of the Ludwig-Maximilians-University (Oberschleissheim, Germany). Animal care and all experimental procedures were performed in accordance to the German and NIH animal legislation guidelines and were approved by the Bavarian Animal Care and Use Committee (AZ 55.2-1-54-2531-26/09). All animal experiments were conducted at the Walter Brendel Centre of Experimental Medicine, University of Munich.
Ischemia reperfusion experiments: Pigs (n=5/experimental group) were anesthetized and instrumented as described previously (Hinkel et al., 2008). Briefly, a balloon was placed in the left anterior descending artery (LAD) distal to the bifurcation of the first diagonal branch and inflated for 60 min. Correct localization of the coronary occlusion and patency of the first diagonal branch were ensured by injection fluoroscopy. Regional application of TB4 peptides or saline solution was performed via selective pressure regulated retroinfusion for 10 min into the anterior interventricular vein (AIV) draining the LAD-perfused myocardium (Kupatt et al., 2005).
Global myocardial function: At day 0 before ischemia induction and after 24 h of reperfusion myocardial function was obtained via Millar pressure tip catheter. Therefore the Millar pressure tip catheter was placed in the left ventricle and left ventricular pressure was recorded for off-line analysis.
Regional myocardial function: 24 hours after induction of ischemia, sternotomy was performed and ultrasonic crystals were placed subendocardial into the area at risk, the infracted area as well as into the Cx perfusion area in a standardized manner. Subendocardial segment shortening (SES) was assessed under resting heart rate as well as at 120 and 150 beats/min atrial pacing (for 1 min/each).
Infarct size and local inflammation: For assessment of infarct size methylene blue was injected in the left ventricle for negative staining of the AAR and tetrazolium red was applied into the LAD for viability staining in the infracted area. Thereafter, left ventricle was cut into slices (5 mm thick), and subjected to digital photography. Planimetry of different slices was conducted via ImageJ for assessment of infarct size in % of AAR. Tissue samples from infarct, area at risk and non-ischemic control were harvested for leukocyte recruitment. Myeloperoxidase assays were performed as previously described (Kupatt et al., 2005).

myocardial cells = test: Beating frequency of myocardial cells in embryonic cardiac explants on collagen gel; type: cell-based, mouse; settings: for frequency of myocardial beating: 300 ng peptide or 100 ng TB4, normalized to PBS and TB4 controls (TB4 = 100.00); for myocyte beating, effect in words: compared with full-length TB4 or other constructs
Procedure: (§2) In vitro embryonic cardiac cell migration assay. The outflow tract of the heart was dissected from E11.5 wild-type mouse embryos and placed on rat-tail collagen matrix (Roche) endothelial layer facing down as described (Bock-Marquette et al., 2004; Runyan and Markwald, 1983). After 10 h of attachment, three independent explants were incubated with 300 ng of peptide #1-17, 100 ng of TB4, or 3 μl PBS in […] OPTIMEM medium (Invitrogen/Gibco) respectively. Medium and protein were changed every two days. To monitor migration distance photos were taken daily using Nikon DXM1200F microscope at 4× magnification. Cell migration distance was quantified by ImageJ software (http at rsb.info.nih.gov/ij/) in three separate explants and three measurements for each treatment respectively. Beating frequency of myocardial cells was counted three times at 7-15 days of treatment. Calculations were normalized to PBS and TB4 treated positive and negative controls. After 15 days at 37° C. in 5% CO2, explants were fixed in 4% paraformaldehyde in PBS for 10 min at room temperature. Explants were stored at 4° C. in PBS for further immunocytochemical investigations.

[2] = test system: embryonic cardiac endothelial cells; test: In vitro embryonic cardiac cell migration assay on collagen gel (outflow tract explants); type: cell-based, mouse; design: unit not given here; settings: 300 ng peptide or 100 ng TB4 in medium; E11.5 outflow tract explants; results normalized to PBS control (TB4 = 100.00)
Procedure: as §2

[3] = Yang et al., 2004, cited from earlier work
mature coronary vessels = test: Immunohistochemistry, smooth muscle α-actin positive vessels at infarction border zone; type: in vivo, mouse; settings: two weeks after treatment, compared to PBS (FIG. 10)
Description: as §1
Immunohistochemistry. Adult mouse cardiac tissue was fixed in 4% paraformaldehyde and sections were analyzed by immunohistochemistry. Hearts were sectioned at eight levels from the base to the apex. Serial sections were immunostained with primary antibodies against Pecam-1 and Wt-1 (1:50) (Santa Cruz), Smooth muscle a-actin (1:220) (Sigma), Sarcomeric a-actinin (1:200) (Sigma), Connexin43 (1:200) (Invitrogen), pS368-Connexin43 (1:200) (Cell Signaling Technology) as recommended by the manufacturer. Terminal deoxynucleotidyl transferase dUTP nick end labeling (TUNEL) assay was performed using In Situ Cell Detection kit (Roche). Number of sm a-actin positive capillaries and Wt-1 positive cells were counted at the infarction border zone in high power photographs at all levels of the sections in three peptide, TB4 and PBS treated hearts respectively.

[4] = test system: Wt-1 positive cardiac progenitors; test: Immunohistochemistry, Wt-1 positive progenitor cells at infarction border; type: in vivo, mouse; settings: infarction border, two weeks after injections (FIG. 11)
Description: Animals and Surgical procedures. Mice: Myocardial infarctions were produced in seventy C57BL/6J male mice at 16 weeks of age (25-30 g) by ligation of the left anterior descending (LAD) coronary artery as described (Garner et al., 2003). All animal protocols were reviewed and approved by the University of Texas Southwestern Medical School Institutional Animal Care Advisory Committee and were in compliance with the rules governing animal use as published by the NIH. Mice were sedated in an isoflurane chamber (5%) for 60 seconds until self-designed coaxial mask could be safely applied. The mask supplied continuous isoflurane (2.0%) and oxygen (98.0%) under positive pressure from a Harvard small animal respirator throughout the procedures. […] Effective doses of the peptides were calculated based on optimal in vitro cell migration effect and on biodistribution calculations of full length TB4 (Mora et al., 1997). […]
Immunohistochemistry. Adult mouse cardiac tissue was fixed in 4% paraformaldehyde and sections were analyzed by immunohistochemistry. […] Number of sm a-actin positive capillaries and Wt-1 positive cells were counted at the infarction border zone in high power photographs at all levels of the sections in three peptide, TB4 and PBS treated hearts respectively.

Compound | frequency of myocardial beating (myocardial cells) | myocyte beating, effect in words (myocardial cells) | endothelial cell migration distance [2] | also measured
C[C@H](N)C(=O)NCC(=O)N[C@@H](CCC(=O)O)C(=O)N[C@@H](CO)C(=O)O [#17, AGES] (H-AGES-OH) | – | – | – | side effects [1]: did not observe any major side effects; side effects (adult infarcted pigs): did not observe any major side effects
#2: acetylated N-terminal variable domain with addition of Met6 (Ac-SDKPDM-OH; UniProt P62328 2-7, looked up, fragment) | 10.65+/−1.15 beats/75 sec | inhibit myocyte beating in vitro | – | –
#4: de-acetylated form of the N-terminal variable domain (of #1) (SDKP; Thymosin beta-4; UniProt P62328 2-5, looked up, fragment) | 86.88+/−1.15 beats/75 sec | – | 154 | –
#5: de-acetylated form of the N-terminal variable domain with Met6 (of #2) (SDKPDM; Thymosin beta-4; UniProt P62328 2-7, looked up, fragment) | 66.39+/−3.46 beats/75 sec | – | 139 | –
Ac-SDKP (Ac-SDKP-OH; UniProt P62328 2-5, looked up, fragment) [#1, acetylated N-terminal variable domain of TB4] | 45.08+/−2.31 beats/75 sec | inhibit myocyte beating in vitro | 116 | fibrosis, inflammation and coronary vessel growth / angiogenesis [3]: highly angiogenic; post-ischemic cardiac (global) function [3]: did not affect post-ischemic cardiac function; also recorded: did not aid global function; fibrosis, inflammation and coronary vessel growth / angiogenesis ([3]; listed as Ac-SDKP): positive influence; post-ischemic cardiac (global) function ([3]; listed as Ac-SDKP): does not aid post-ischemic cardiac function
Ac-SDKPDMox [#3] | 17.21+/−1.00 beats/75 sec | – | 70.7 | post-ischemic cardiac function, in words [1]: does not alter cardiac function; post-ischemic cardiac function, in words ([1]; listed as Ac-SDKPDMox): failed to aid cardiac function; number of mature coronary vessels (mature coronary vessels): fails to alter the number of mature coronary vessels; number of mature coronary vessels (mature coronary vessels; listed as Ac-SDKPDMox): did not initiate vessel growth; Wt-1 positive progenitor cells [4]: fails to increase Wt-1 positive progenitor cells
LKKTET [#8] | 87.02+/−16.17 beats/75 sec | resembled myocyte fibrillation; also recorded: increases beating frequency | 13 | –
LKKTETQEKNPLPSKETIEQEKQAGES [#14] | – | – | – | side effects [1]: did not observe any major side effects; side effects (adult infarcted pigs): did not observe any major side effects
